# Assay results taken from patent publication US20210214560A1, “COMPOUND, COLORING COMPOSITION, INK, TONER, COLORING RESIN COMPOSITION, AND COMPOSITION FOR DYEING FIBER” (FUJIFILM Corporation, priority 2018, published 2021).
# Columns and labels:
# Type in all cases: physicochemical
# [1] = Evaluation of heat stability (heat resistance), powder heated at 180° C. for 5 minutes; conditions: oven 180° C. for 5 minutes, A/A0×100, absorbance in tetrahydrofuran
# Protocol: (§1) Heat stability of each compound was evaluated by the following procedure. 10 mg of the powder of each compound was dissolved in 500 mL of tetrahydrofuran, and the absorption spectrum was measured to obtain a reference absorbance (A0). On the other hand, 10 mg of the powder of each compound was weighed in a 4 cm square aluminum cup, placed in an oven, and heated at 180° C. for 5 minutes. The entire amount of the powder after heating was dissolved in 500 mL of tetrahydrofuran, and the absorption spectrum was measured to obtain an absorbance (A) after the heating test. The residual rate of each compound was calculated by the following expression to evaluate heat stability.
# Residual rate of compound (%)=A/A0×100
# [2] = Evaluation of maximum absorption wavelength (absorption spectrum in tetrahydrofuran solution); conditions: 1×10^−6 mol/L
# [3] = Evaluation 2 of heat stability, powder heated at 200° C. for 5 minutes; conditions: oven 200° C. for 5 minutes, A2/A0×100, absorbance in tetrahydrofuran
# Protocol: as §1, with “200°” for “180°”, “(A2)” for “(A)”
# Residual rate of compound (%)=A2/A0×100
# [4] = optical path length 10 mm (Table 7)
# [5] = optical path length 10 mm (Table 9)
Structure (SMILES),Residual rate of compound [1] [%],"Absorption maximum wavelength [2, 4] [nm]","Molar light absorption coefficient [2, 4]","Absorption maximum wavelength [2, 5] [nm]","Molar light absorption coefficient [2, 5] [L/mol/cm]",Residual rate of compound [3] [%]
CC1(C)Nc2cccc3c(N=Nc4ccc(N=Nc5ccccc5Cl)c5ccccc45)ccc(c23)N1 [(1-1)],85,624,"34,500 L · mol^−1 · cm^−1",,,
CCCCC1(C)Nc2cccc3c(N=Nc4ccc(N=Nc5ccccc5Cl)c5ccccc45)ccc(c23)N1 (centres unmarked) [(1-5)],81,629,"35,100 L · mol^−1 · cm^−1",,,
CC1(C)Nc2cccc3c(N=Nc4ccc(N=Nc5ccccc5Br)c5ccccc45)ccc(c23)N1 [(1-34)],74,621,"32,800 L · mol^−1 · cm^−1",,,
CCCCCC1(C)Nc2cccc3c(N=Nc4ccc(N=Nc5ccccc5Cl)c5ccccc45)ccc(c23)N1 (centres unmarked) [(1-9)],84,629,"35,900 L · mol^−1 · cm^−1",,,
CCC1(C)Nc2cccc3c(N=Nc4ccc(N=Nc5ccccc5Cl)c5ccccc45)ccc(c23)N1 (centres unmarked) [(1-2)],84,627,"34,000 L · mol^−1 · cm^−1",,,
COC(=O)c1ccccc1N=Nc1ccc(N=Nc2ccc3c4c(cccc24)NC(C)(C)N3)c2ccccc12 [(1-40)],80,599,"26,600 L · mol^−1 · cm^−1",,,
CCCCC1(C)Nc2cccc3ccc(N=Nc4ccc(N=Nc5ccccc5Cl)c5ccccc45)c(c23)N1 (centres unmarked) [(3-8)],,,,616,35800,87
CC1(C)Nc2cccc3c(N=Nc4ccc(N=Nc5ccccc5C#N)c5ccccc45)ccc(c23)N1 [(1-38)],92,648,"28,900 L · mol^−1 · cm^−1",,,
CC1(CC#N)Nc2cccc3c(N=Nc4ccc(N=Nc5ccccc5Cl)c5ccccc45)ccc(c23)N1 (centres unmarked) [(1-61)],77,604,"34,100 L · mol^−1 · cm^−1",,,
CCCC1(C)Nc2cccc3c(N=Nc4ccc(N=Nc5ccccc5Cl)c5ccccc45)ccc(c23)N1 (centres unmarked) [Compound (1-3)],82,629,"34,400 L · mol^−1 · cm^−1",,,
CCCCCC1(C)Nc2cccc3ccc(N=Nc4ccc(N=Nc5ccccc5Cl)c5ccccc45)c(c23)N1 (centres unmarked) [(3-10)],,,,615,34800,88
"CC1(C)Nc2cccc3c(N=Nc4ccc(N=Nc5cccc(F)c5)c5ccccc45)ccc(c23)N1 [Comparative compound A, reference compound]",63,,,,,
CC(C)C1(C)Nc2cccc3ccc(N=Nc4ccc(N=Nc5ccccc5Cl)c5ccccc45)c(c23)N1 (centres unmarked) [(3-9)],,,,614,35500,85
"CC1(C)Nc2cccc3c(N=Nc4ccc(N=Nc5ccccc5)c5ccccc45)ccc(c23)N1 [Comparative compound C, reference compound]",,,,607,32000,59
CC(C)C1(C)Nc2cccc3c(N=Nc4ccc(N=Nc5ccccc5Cl)c5ccccc45)ccc(c23)N1 (centres unmarked) [(1-4)],84,631,"33,000 L · mol^−1 · cm^−1",,,
CCCCC(CC)C(=O)OCC1(C)Nc2cccc3c(N=Nc4ccc(N=Nc5ccccc5Cl)c5ccccc45)ccc(c23)N1 (centres unmarked) [(1-20)],84,623,"33,800 L · mol^−1 · cm^−1",,,
CC1(C)Nc2cccc3c(N=Nc4ccc(N=Nc5ccccc5F)c5ccccc45)ccc(c23)N1 [(1-31)],90,619,"35,000 L · mol^−1 · cm^−1",,,

Structure (SMILES),Residual rate of compound [1] [%],"Absorption maximum wavelength [2, 4] [nm]","Molar light absorption coefficient [2, 4]","Absorption maximum wavelength [2, 5] [nm]","Molar light absorption coefficient [2, 5] [L/mol/cm]",Residual rate of compound [3] [%]
CC1(C)Nc2cccc3ccc(N=Nc4ccc(N=Nc5ccccc5F)c5ccccc45)c(c23)N1 [(3-2)],,,,608,36000,85
CC1(C)Nc2cccc3ccc(N=Nc4ccc(N=Nc5ccccc5C#N)c5ccccc45)c(c23)N1 [(3-4)],,,,638,30500,88
CC(=O)c1ccccc1N=Nc1ccc(N=Nc2ccc3cccc4c3c2NC(C)(C)N4)c2ccccc12 [(3-6)],,,,615,36100,96
CC1(C)Nc2cccc3c(N=Nc4ccc(N=Nc5ccccc5C(=O)c5ccccc5)c5ccccc45)ccc(c23)N1 [(1-59)],82,639,"35,700 L · mol^−1 · cm^−1",,,
COC(=O)c1ccccc1N=Nc1ccc(N=Nc2ccc3cccc4c3c2NC(C)(C)N4)c2ccccc12 [(3-3)],,,,586,29200,86
CC1CCCCC12Nc1cccc3c(N=Nc4ccc(N=Nc5ccccc5Cl)c5ccccc45)ccc(c13)N2 (centres unmarked) [(1-27)],81,629,"34,800 L · mol^−1 · cm^−1",,,
CCCC1(C)Nc2cccc3ccc(N=Nc4ccc(N=Nc5ccccc5Cl)c5ccccc45)c(c23)N1 (centres unmarked) [Compound (3-7)],,,,617,36200,85
CC1(C)Nc2cccc3ccc(N=Nc4ccc(N=Nc5ccccc5Cl)c5ccccc45)c(c23)N1 [(3-1)],,,,612,36300,83
CC1(Cc2ccccc2)Nc2cccc3c(N=Nc4ccc(N=Nc5ccccc5Cl)c5ccccc45)ccc(c23)N1 (centres unmarked) [(1-64)],73,631,"36,800 L · mol^−1 · cm^−1",,,
CCCCCC1(C)Nc2cccc3c(N=Nc4ccc(N=Nc5ccccc5C(C)=O)c5ccccc45)ccc(c23)N1 (centres unmarked) [(1-50)],98,629,"34,900 L · mol^−1 · cm^−1",,,
CC1(C)Nc2cccc3ccc(N=Nc4ccc(N=Nc5ccccc5[N+](=O)[O-])c5ccccc45)c(c23)N1 [(3-5)],,,,627,32100,95
CC(C)(C)C1(C)Nc2cccc3c(N=Nc4ccc(N=Nc5ccccc5Cl)c5ccccc45)ccc(c23)N1 (centres unmarked) [(1-8)],81,631,"35,200 L · mol^−1 · cm^−1",,,
"CC1(C)Nc2cccc3c(N=Nc4ccc(N=Nc5ccc(F)cc5)c5ccccc45)ccc(c23)N1 [Comparative compound B, reference compound]",64,,,,,
CC1(CC(N)=O)Nc2cccc3c(N=Nc4ccc(N=Nc5ccccc5Cl)c5ccccc45)ccc(c23)N1 (centres unmarked) [(1-62)],74,607,"34,200 L · mol^−1 · cm^−1",,,
CC1(CO)Nc2cccc3c(N=Nc4ccc(N=Nc5ccccc5Cl)c5ccccc45)ccc(c23)N1 (centres unmarked) [(1-17)],89,622,"33,100 L · mol^−1 · cm^−1",,,
CC(C)NC(=O)OCC1(C)Nc2cccc3c(N=Nc4ccc(N=Nc5ccccc5Cl)c5ccccc45)ccc(c23)N1 (centres unmarked) [(1-21)],84,623,"33,900 L · mol^−1 · cm^−1",,,
"CC1(C)Nc2cccc3ccc(N=Nc4ccc(N=Nc5ccccc5)c5ccccc45)c(c23)N1 [Comparative compound D, reference compound]",,,,599,34200,65
